Legend:
[1] = system: rats with streptozotocin-induced diabetes mellitus; assay: Fasting blood plasma glucose level in rats with streptozotocin-induced diabetes mellitus; type: in vivo, Wistar rats; settings: STZ rats
Method: In the study, 150 male Wistar were used (weight at beginning of study 250-300 g, age 3.5-4 months). 10 rats were intact. The rest were intravenously injected with streptozotocin at the dose of 50 mg/kg (experimental model of diabetes mellitus). […] Intact rats received distilled water in the same volume. On days 7, 14 and 21 of injection of preparations in rats, fasting blood plasma glucose level measured with enzymatic method (glucose oxidase method) with utilization of “glucose FKD” kits (Russia).

[2] = system: rats with streptozotocin-induced diabetes mellitus; assay: Oral glucose tolerance test (OGTT) on day 14 in rats with streptozotocin-induced diabetes mellitus; type: in vivo, Wistar rats; settings: STZ rats; day 14 of injection; glucose 1 g/kg per os; administered alone
Method: The rats were starving at water for 18 hours. 60 min before the test they were last given test substances. Intact rats received distilled water in the same volume. Glucose was administered per os 50% w/w water glucose solution (1 g/kg of rat weight). Serum glucose of blood sample from tail vein was measured by using “Glucose FKD” kit (OOO “Pharamaceutical and clinical diagnostics, Russia) at 0, 30, 60, 90, 120 min. Mean area under the curve (AUC) concentration of blood glucose over time was calculated.

Row | Compound | effect on blood plasma glucose level (in words) ([1]; all observation periods, 1/2 of the effective dose, glucose measured 1 hour after injection) | glucose tolerance, area under concentration-time curve (AUC) in OGTT (in words) [2] | decrease in glucose level versus control ([1]; day 14 of the experiment, p<0.05 versus control) [%]
1 | insulin: short-acting insulin, 8 units/kg/day subcutaneously, 1/2 of the effective dose | down to the level of the intact control | most effectively increased glucose tolerance | 
2 | CN(CCOc1ccc(CC2SC(=O)NC2=O)cc1)c1ccccn1 (stereo not drawn) [Rosiglitazone] |  |  | 36

From patent publication US8617555B2, “Pharmaceutical compositions comprising activated-potentiated antibodies to human insulin receptor and endothelial nitric oxide (NO) synthase” (priority 2010, dated 2013)
